From US20110251213A1, “Cosmetic Use of 1-Aroyl-N-(2-oxo-3-piperidinyl)-2-Piperazine Carbomamides and Related Compounds” (Avon Products, Inc., priority 2008, published 2011)
Like-named read-outs stand apart in the source and are kept apart here.

Legend:
[1] = system: procollagen 1; conditions: human dermal fibroblasts, 5 μg/ml, 48 hours
Protocol: Human dermal fibroblasts (Cascade Biologics) were cultured in 96-well tissue culture plates in growth medium (DMEM, 5% FBS, 1% L-Glut, and 1% antibiotics) and incubated for 24 hours at 37° C. […] Procollagen 1 levels were assayed using an ELISA kit from Takara (Procollagen Type-1 C-Peptide EIA Kit, Takara Bio Inc.) as per manufacturer's instructions.

[2] = system: Desmoglein 1; conditions: keratinocytes
Protocol: Normal human keratinocytes were cultured in 96 well tissue culture treated plates in Epilife medium with growth supplements (Cascade Biologics Inc.). Cells were treated with test material or a dimethylsulfoxide vehicle control diluted in growth medium for 24 hours in a humidified 37° C. incubator with 10% CO2. After incubation, growth medium from each plate was removed and 100 μl of lysis buffer was added to each of the wells and placed in the humidified 37° C. incubator with 10% CO2 for 30 minutes. At the end of the incubation period, the cells were collected in freezer plates and placed in a −80° C. freezer, until analysis. Changes in mRNA for Desmoglein 3 (DSG3) after treatment were analysed using Panomics Quantigene multiplex assay that employs branched DNA technology.

[3] = system: Dermatopontin; conditions: fibroblasts, 24 hours, p<0.05
Protocol: Normal human dermal fibroblasts were cultured in 96 well tissue culture treated plates, containing appropriate culture medium. Cells were treated with 1-aroyl-N-(2-oxo-3-piperidinyl)-2-piperazine carboxamide test material, diluted in growth medium, for 24 hours in a humidified 37° C. incubator with 10% CO2. After incubation, growth medium from each plate was removed and 100 μl of lysis buffer was added to the wells and placed in 37° C. incubator with10% CO2 for 30 minutes. At the end of incubation, the cells were collected in freezer plates and placed in −80° C. freezer, until analysis. Changes in mRNA for Dermatopontin after treatment were analysed using Panomics Quantigene multiplex assay that employs a branched DNA technology.

For “1-aroyl-N-(2-oxo-3-piperidinyl)-2-piperazine carboxamide”, the “increase in collagen synthesis compared to control” value [1] was 75.4%, the “increase in Desmoglein 1 expression” value ([2]; 0.00005% of the test material, 24 hours) was “did not show a statistically significant increase” and the “increase in Desmoglein 1 expression” value ([2]; concentration of 0.0005%, after 24 hours, average of three samples, p<0.05) was 95%. For the same substance, the “stimulation in mRNA levels for Dermatopontin” value ([3]; 0.00005%) was 43% and the “stimulation in mRNA levels for Dermatopontin” value ([3]; 0.0005%) was 62%.
